US9125862B2, “Methods for the treatment of Prader-Willi-like syndrome or non-organic failure to thrive (NOFITT) feeding disorder using an agonist of the oxytocin receptor” (Institut National de la Sante et de la Rechereche Medicale …, priority 2010, dated 2015)

Tested on: adult patients with PWS
Test: Behavioural grid scores after a single intranasal administration, double-blind placebo-controlled pilot study
Assay type: in vivo, human
Parameters: key to Change in behavioural scores: Depressive tendencies, Mean / Change in behavioural scores: Self-depreciation, Mean / Change in behavioural scores: Interest in love affair, Mean / Change in behavioural scores: Trust in others, Mean / Change in behavioural scores: Isolation tendencies, Mean / Change in behavioural scores: Sadness tendencies, Mean: grid score: negative = deterioration, positive = improvement
Text: The inventors designed a double-blind randomised, placebo-controlled pilot study (ClinicalTrials.gov Identifier: NCT01038570) to be conducted in a dedicated PWS centre, where patients are regularly admitted for one month and live in a controlled environment. Patients know they have no free access to food but no doubt about the time and the content of meals. For each stay, 16 patients with PWS are admitted and take part in daily planned occupational and physical group activities. They also receive medical care as needed and psychological support. The 24 patients included in this study (16 females, 8 males, median age 28.5 years [18.7 to 43.6], median BMI 43 kg/m2 [19.4 to 67.4]) were stratified on gender and IQ (median IQ=51 [45 to 75]). […] Patients as well as parents or caregivers gave their written consent prior to entering the study. Exclusion criteria were an abnormal ECG and other severe cardiovascular problems. Patients were well known to the team. Each pair of patients of the same gender and same IQ range was evaluated the same day. The two patients of the pair received either OT or placebo in a double-blind randomisation. Patients were included in the study over the course of three series of stays.
Each patient received a single intranasal administration of either placebo (saline solution) or OT (Syntocinon®/-Spray, Novartis, Basel, Switzerland) with three puffs per nostril (24 UI). The dose of 24 UI is the most frequently reported in the literature. […] This nurse knew neither the patients nor the study.
The behaviour of the patients was carefully monitored, scored daily by the team psychologist, and documented on the case report form for the two days before drug administration, on the half-day following administration (early effects) and over the two days following drug administration (late effects). Both the staff and the rater were unaware of treatment status. There are currently no validated grids that evaluate the specific behavioural features of patients with PWS that they particularly wanted to study, i.e. tendencies towards isolation, sadness, and depression, self-depreciation, self-mutilation, conflicts with others, disruptive behaviour, interest in friendship, interest in love affairs, and trust of others. For this reason, they used an in-house grid developed by the caregivers and based on the routine observation of these patients in this dedicated centre for PWS with recognized expertise (17, 18). The criteria that the staff used to fill in the grid are explained in Table 1. The patients were well known to the team but the mean behavior status was re-evaluated during the first week of admission using the same grid. The behavioural features of the patients were scored as unchanged, moderately changed, or severely changed. For each criterion, a negative score reflected deterioration in the mean behavior status of the patient while a positive score reflected an improvement. Eating behaviour was also scored using three categories: usual, better than usual or worse, based on the analysis of each meal. The following were evaluated: amount of food intake per meal, amount of food requested per meal, duration of meal, and behaviour before/during/after the meal. To evaluate the early effect of OT, we analysed only the first meal after drug administration.

[1] = 19 patients with deletions, P=0.05, data not shown
[2] = Early effect (half-day following administration), intranasal 24 UI
[3] = Late effect (mean of two days following administration), intranasal 24 UI
[4] = Pre-administration (mean of two days before), OT group baseline
[5] = pre-post difference (late effect score minus pre-administration score), OT group

**Q.** Which results are given for `CC[C@H](C)[C@@H]1NC(=O)[C@H](Cc2ccc(O)cc2)NC(=O)[C@@H](N)CSSC[C@@H](C(=O)N2CCC[C@H]2C(=O)N[C@@H](CC(C)C)C(=O)NCC(N)=O)NC(=O)[C@H](CC(N)=O)NC(=O)[C@H](CCC(N)=O)NC1=O` [oxytocin]?
**A.** effect on disruptive behaviour (19 patients with deletions (9 OT, 10 placebo), P=0.04, data not shown): significant effect; interest in friendship [1]: more interest in friendship; trust in others [1]: trend towards more trust in others; sadness tendencies (19 patients with deletions, P=0.07, data not shown): fewer sadness tendencies; Depressive tendencies score [2]: 0 ± 0; Disruptive behaviour score [2]: −0.167 ± 0.389; Interest in friendship score [2]: 0.917 ± 0.515; Interest in love affairs score [2]: 0.917 ± 0.515; Isolation tendencies score [2]: −0.083 ± 0.289; Sadness tendencies score [2]: −0.083 ± 0.289; Self-depreciation score [2]: −0.083 ± 0.289; Self-mutilation score [2]: −0.083 ± 0.289; Trust in others score [2]: 0.833 ± 0.389; Conflicts with others score [3]: −0.111 ± 0.205; Depressive tendencies score [3]: 0 ± 0; Interest in friendship score [3]: 1.028 ± 0.234; Interest in love affairs score [3]: 0.903 ± 0.411; Isolation tendencies score [3]: 0 ± 0; Self-depreciation score [3]: 0 ± 0; Self-mutilation score [3]: −0.083 ± 0.195; Conflicts with others score [4]: −0.319 ± 0.359; Depressive tendencies score [4]: −0.056 ± 0.192; Disruptive behaviour score [4]: −0.431 ± 0.344; Interest in friendship score [4]: 0.875 ± 0.433; Interest in love affairs score [4]: 0.972 ± 0.531; Isolation tendencies score [4]: −0.083 ± 0.289; Sadness tendencies score [4]: −0.194 ± 0.407; Self-depreciation score [4]: −0.056 ± 0.192; Self-mutilation score [4]: −0.278 ± 0.468; Trust in others score [4]: 0.861 ± 0.332; disruptive behaviour (excluding the seven patients on psychotropic medications, two days following administration, P=0.04, data not shown): less disruptive behaviour; Change in behavioural scores: Conflicts with others, Mean [5]: 0.208; Change in behavioural scores: Depressive tendencies, Mean [5]: 0.056; Change in behavioural scores: Interest in friendship, Mean [5]: 0.153; Change in behavioural scores: Interest in love affair, Mean [5]: −0.069; Change in behavioural scores: Isolation tendencies, Mean [5]: 0.083; Change in behavioural scores: Sadness tendencies, Mean [5]: 0.111; Change in behavioural scores: Self-depreciation, Mean [5]: 0.056; Change in behavioural scores: Trust in others, Mean [5]: 0.167
